Activity calls are given as the source filed them.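 The calls were made as follows: active = compounds giving half or more protection of infected cells from virus-caused growth loss, again on retest; inactive = the rest.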 Where a SMILES comes first, the peptide text is derived from it.
System: CEM cells HIV-1 protection, formazan growth assay
Assay: NCI AIDS Antiviral Assay
Conditions: for IC50: measured here: growth of uninfected CEM cells
Method in brief: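 Human CEM cells, uninfected and HIV-1-infected, received five drug concentrations, and growth was read by soluble formazan assay. Compounds giving at least 50% protection were retested; reproducible 100% protection defined confirmed active.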

| Compound | EC50 [µM] | IC50 [µM] | outcome |
| --- | --- | --- | --- |
| CN(C)c1ccc(C=C2C=CC=C2)cc1 | > 19.1 | > 19.1 | – |
| O=C(O)CSCCCCSCC(=O)O | > 1050 | > 1050 | – |
| O=C1C(=O)c2ccccc2C(O)=C1C(C1=C(O)c2ccccc2C(=O)C1=O)c1ccc(C(C2=C(O)c3ccccc3C(=O)C2=O)C2=C(O)c3ccccc3C(=O)C2=O)cc1 | > 200 | 9.55 | – |
| CCN1C(=O)c2cc(=O)[nH]c(O)c2C1C (stereo not given) | > 468 | > 468 | – |
| COC1/C=C/OC2(C)Oc3c(C)c(O)c4c(O)c(c(/C=N/N5CCN(Cc6cccc(C(F)(F)F)c6)CC5)c(O)c4c3C2=O)NC(=O)C(C)=C/C=C/C(C)C(O)C(C)C(O)C(C)C(OC(C)=O)C1C (stereo not given) | > 200 | 6.92 | – |
| CC(C)(C)OC(=O)CC(NC(=O)OC(C)(C)C)C(=O)NC(C(=O)O)C(O)c1ccccc1 (stereo not given) | > 200 | 93.3 | – |
| COC(=O)c1cc(C(=CCCOS(C)(=O)=O)c2cc(Cl)c(OC)c(C(=O)OC)c2)cc(Cl)c1OC | > 200 | 14.5 | – |
| CC1(C)CC(=O)C2=C(C1)Nn1c(nnc1C(F)(F)F)S2 | > 813 | 355 | – |
| CC12CCC(CC1)C(C)(C)N=C(N)S2 | > 200 | 56.2 | – |
| COc1ccccc1C1C2=C(COC2=O)Oc2cc3c(cc21)OCO3 (stereo not given) | > 200 | 2.19 | – |
| CC(NC(=O)CNC(=O)C(N)CO)C(=O)NC(CCC(N)=O)C(=O)NC(CCC(=O)O)C(=O)NC(C)C(=O)NC(CCC(=O)O)C(=O)NC(CCCCN)C(=O)NC(CCC(N)=O)C(=O)NC(CCCN=C(N)N)C(=O)NC(C(=O)NC(CC(N)=O)C(=O)NC(C)C(=O)NC(Cc1cnc[nH]1)C(=O)NC(CO)C(=O)O)C(C)O (stereo not given) (H-SGAQEAEKQRTNAHS-OH; configuration not given here) | > 100 | > 100 | – |
| CN(N=O)C(=O)NC(CCCCNC(=O)OCc1ccccc1)C(=O)OCc1ccccc1 (stereo not given) | > 21.9 | > 21.9 | – |
| NC(CSS(=O)(=O)c1ccccc1)C(=O)O (stereo not given) | > 200 | > 200 | – |
| CC(C)OP(=O)(OC(C)C)/C(I)=N/Nc1ccc([N+](=O)[O-])cc1 | > 110 | > 110 | – |
| CNCCSS(=O)(=O)CCNC | 214 | 457 | – |
| CC1(c2ccc(Cl)cc2)C2C(=O)NC(=O)C1C(=O)NC2=O (stereo not given) | > 813 | 490 | – |
| OC1(c2ccccc2)CC2CCC(C1)N2CCCC(O)(c1ccccc1)c1ccccc1 (stereo not given) | > 200 | 28.8 | – |
| CCc1c(Cc2ccccc2)n(COCCCO)c(=O)[nH]c1=O | 7.08 | 10 | – |
| C=C1CCC2(C(C)=O)COC1(C)O2 (stereo not given) | – | – | inactive |
| CCC1C(c2ccccc2)=CCC(C(=O)O)C1C (stereo not given) | > 200 | > 200 | – |
| CCN=C(c1ccc(NC(=O)c2ccc(C(=O)Nc3ccc(C(=NCC)N(CC)CC)cc3)cc2)cc1)N(CC)CC | > 200 | 64.6 | – |
| O=C(OCC(OC(=O)c1ccccc1)C1CC(C2(O)CCCCC2)C(=O)O1)c1ccccc1 (stereo not given) | > 50.1 | > 50.1 | – |

| Compound | EC50 [µM] | IC50 [µM] | outcome |
| --- | --- | --- | --- |
| CCOC(=O)/C=C(/OCC)[C@@H]1C(C(=O)c2ccc(Cl)cc2)[C@H]1/C(=C\C(=O)OCC)OCC (stereo not given in full) | > 200 | 17.4 | – |
| O=C(c1ccccc1)N1CCC(Nc2cccnc2)O1 (stereo not given) | > 200 | 105 | – |
| Brc1ccc2[nH]cc(/C=N/N3CCCCCC3)c2c1 | > 112 | > 112 | – |
| Cc1ccc(C(CCO)CCO)nc1 | > 200 | > 200 | – |
| CC(=O)NNc1nc(C)c(C(=O)/C=C/C=C/c2ccccc2)s1 | > 21.9 | > 21.9 | – |
| CCOP(=O)(OCC)/C(C#N)=C/c1cnc(-c2ccccc2)[nH]1 | > 200 | 102 | – |
| CN1C(=O)CC(c2cccc(C3CC(=O)N(C)C3=O)n2)C1=O (stereo not given) | > 832 | > 832 | – |
| COC1(OC)CC(CO)(CNc2cc(Cl)nc(N)n2)C1 | > 200 | > 200 | – |
| Cc1cc(Sc2cc(C)c(O)c(C(C)(C)C)c2)cc(C(C)(C)C)c1O | > 200 | 15.8 | – |
| COC(=O)c1c(CC(Cc2ccc3c(c2)CCCC3)C(=O)O)ccc2c1CCCC2 (stereo not given) | > 200 | 58.9 | – |
| COc1ccc(C2Oc3c(cccc3-c3c(-c4ccc(O)cc4)oc4cc(O)cc(O)c4c3=O)C(=O)C2O)cc1O (stereo not given) | > 200 | 170 | – |
| COc1ccc(-c2cc(-c3ccco3)c(C#N)c(=S)n2C2OC(COC(C)=O)C(OC(C)=O)C(OC(C)=O)C2OC(C)=O)cc1 (stereo not given) | 123 | 145 | – |
| NC(N)=NN=C(c1ccccc1)c1ccccc1 | > 200 | 1.02 | – |
| COc1ccc2[nH]c3cc4c(=O)c5cc(OC)ccc5[nH]c4cc3c(=O)c2c1 | > 72.4 | > 72.4 | – |
| CN(C)C(=N/O)/C(=N\O)N(C)C | – | – | inactive |
| CC1=CC2CCC1(C)C/C2=C(/C)OC=O (stereo not given) | – | – | inactive |
| COc1cc2c(=O)cnoc2cc1O | > 200 | 26.3 | – |
| CC1=C2CCC(O)CC2(C)C(O)C1C (stereo not given) | – | – | inactive |
| C1CCC2(CC1)C[N+]1(CCCC1)C1(CCC1)O2 | > 200 | > 200 | – |
| CC1=C(C(=O)Nc2ccc(Cl)c(Cl)c2)C(c2ccc([N+](=O)[O-])cc2)C(C(=O)Nc2ccc(Cl)c(Cl)c2)=C(C)N1 | > 8.71 | 5.62 | – |
| CCN(CC)c1ccc(N=Nc2ccc(-c3nc4cccnc4s3)cc2)cc1 | > 5.13 | > 5.13 | – |
| N#Cc1c(N2CCC(O)C2)c2ccccc2n2c1nc1ccccc12 (stereo not given) | > 50.1 | > 50.1 | – |

| Compound | EC50 [µM] | IC50 [µM] | outcome |
| --- | --- | --- | --- |
| O=Cc1cn(CCCCCCCCCCCCn2cc(C=O)c3ccccc32)c2ccccc12 | > 200 | 1.2 | – |
| O=C(Nc1ccc(CN2CCOCC2)cc1)c1ccc(C(=O)Nc2ccc(CN3CCOCC3)cc2)cc1 | > 200 | > 200 | – |
| CN(CCNC(=O)c1cc(-c2ccccc2)nc2ccccc12)CCNC(=O)c1cc(-c2ccccc2)nc2ccccc12 | > 20 | 10.5 | – |
| CCOC(=O)Cc1csc2[n+]1C(=O)/C(=C\c1cccc(Cl)c1Cl)S2 | > 200 | 21.4 | – |
| C=C1C(=O)OC2C1CCC(C)C1C=CC(=O)C12C (stereo not given) | > 200 | 1.07 | – |
| CC(C)(C)C(=O)Cc1cc2c(cc1C(=O)O)S(=O)(=O)NC(C(C)(C)C)=C2 | > 479 | > 479 | – |
| CC1=C[C@]2(O)C(=O)[C@H](C)C[C@H]3[C@@H](CC[C@@](C)(O)/C=C\2C1=O)C3(C)C | > 30.2 | 15.8 | – |
| CC1=NNC(=O)C1C1CC(c2c[nH]c3ccccc23)=NN=C1Cl (stereo not given) | > 200 | 93.3 | – |
| Cc1ccc(C(=O)Nc2ccc(CP(=O)(O)O)cc2)cc1NC(=O)Nc1cc(C(=O)Nc2ccc(CP(=O)(O)O)cc2)ccc1C | > 50.1 | > 50.1 | – |
| COC1OC2COC(C)(C)OC2C(OC(C)=O)C1NC(=O)N(CCCl)N=O (stereo not given) | > 229 | > 229 | – |
| CCCCC(Sc1cc(Cl)c(C)cc1S(=O)(=O)Nc1n[nH]c(N)n1)C(=O)OC (stereo not given) | > 200 | > 100 | – |
| COc1ccc2c(c1OC)C1CCCCC1SCC2=O (stereo not given) | > 200 | 105 | – |
| N#Cc1c(N)sc(=S)c2c1CCCC2 | > 22.4 | > 22.4 | – |
| CCOC(=O)C1=C(C)NC(C)=C(C(=O)OCC)C1c1ccc([N+](=O)[O-])s1 | – | – | inactive |
| O=C(/C=C/c1ccc([N+](=O)[O-])cc1)c1nc2ccccc2[nH]1 | > 200 | 4.37 | – |
| O=C1c2cccc3cccc(c23)C(=O)N1CC1CCCO1 (stereo not given) | – | – | inactive |
| CCCCCCCCCCCCCC(=O)OCC1OC(n2cc(C)c(=O)[nH]c2=O)CC1O (stereo not given) | > 200 | 11.7 | – |
| CC1CSS(=O)O1 (stereo not given) | > 200 | > 200 | – |
| CCOC(=O)NC(=S)NC(C)c1ccccc1 (stereo not given) | > 200 | 115 | – |
| N#CC(F)(F)C(F)(F)C(F)(F)C(F)(F)C(F)(F)C(F)(F)C(F)(F)F | > 200 | > 200 | – |
| N#Cc1c2ccc([N+](=O)[O-])cc2c(=O)n2c1sc1ccccc12 | > 200 | 10.7 | – |
| CC(=O)Oc1ccn2nc(C)c(Br)c2c1 | > 200 | 93.3 | – |

| Compound | EC50 [µM] | IC50 [µM] | outcome |
| --- | --- | --- | --- |
| Cc1ccc(NC(=O)C(=O)C(C#N)c2nc(-c3ccc(-c4ccccc4)cc3)cs2)c(C)c1 (stereo not given) | > 66.1 | > 66.1 | – |
| On1ccc(=S)c2ccccc21 | > 200 | 36.3 | – |
| O=S(=O)(CC1=NC2C=CC=CC2N=C1)NCc1ccccc1 (stereo not given) | – | – | inactive |
| NNC(=O)c1n[nH]nc1C(=O)NN | > 200 | > 200 | – |
| COC(=O)C1CC(c2ccc(Cl)cc2)=NO1 (stereo not given) | > 282 | > 282 | – |
| O=Nc1ccc(Br)cc1 | – | – | inactive |
| C(CCC[Te][Te]CCCCCCOC1CCCCO1)CCOC1CCCCO1 (stereo not given) | – | – | inactive |
| O=c1/c(=C\C=C\c2ccccc2)sc2n1CCN=2 | – | – | inactive |
| CCOC(=O)/C(=C\n1c(=O)sc2ccccc21)C(=O)c1ccccc1 | > 200 | 42.7 | – |
| C=CC1OC(CCCOC(=O)C(C)(C)C)O[C@@H]1CC (stereo not given in full) | > 200 | > 200 | – |
| C=C1C(=O)C23C(O)C1CC[C@H]2C12CCCC(C)(COC(C)=O)[C@H]1[C@H](O)[C@]3(O)OC2 (stereo not given in full) | > 324 | 0.398 | – |
| COC(=O)c1ccccc1NC(=S)NN(C)C | > 200 | 151 | – |
| CC(=O)N=C1N(/C=C2\C(=O)Oc3ccccc3C2=O)C(=O)/C(=C/c2cccc([N+](=O)[O-])c2)N1C | > 100 | 97.7 | – |
| c1ccc2c(c1)c1ccccc1n2-n1c2ccccc2c2ccccc21 | > 200 | 132 | – |
| CC(=O)O[C@@H]1CCN(Cc2ccccc2)C[C@@H]1CN(C(C)=O)C12CC3CC(CC(C3)C1)C2 | > 8.51 | 8.32 | – |
| CN[C@@H](C)[C@@H](NC)c1ccccc1 | – | – | inactive |
| COc1c(Cc2ccccc2O)c(O)c(Cc2cc(Cc3ccccc3O)ccc2O)c(O)c1C(=O)CCc1ccccc1 | > 60.3 | 21.4 | – |
| N#C/C(=C/Sc1ccccc1)C(=O)O | – | – | inactive |
| COC(=O)N1C2c3ccccc3C(c3ccccc32)N1C(=O)OC | > 200 | > 200 | – |
| CCOC(=O)c1nc2ccc(Cl)cc2c2c1Cc1ccccc1-2 | > 20 | > 20 | – |

— PubChem BioAssay AID179 (DTP/NCI, 2004)
